{
  "source": "patent US20110251216A1",
  "about": "“COMPOSITIONS AND METHODS FOR INHIBITING EZH2” (The Regents of The University of Michigan, priority 2010, published 2011)",
  "assay_type_in_all_cases": "cell-based",
  "key": {"[1]": {"tested_on": "breast cell line HME infected with EZH2 adenovirus", "assay": "basement membrane matrix invasion assay, EZH2 overexpressing HME cells", "procedure": "(§1) A, Dose response of isoliquiritigenin on inhibiting EZH2 mediated repression. B, A reconstituted basement membrane invasion chamber assay was used to assess the invasion of breast epithelial cell line infected with EZH2 and control adenoviruses as well as SET domain mutant EZH2 adenovirus. EZH2 treated cells were also treated with SAHA, the HDAC inhibitor and isoliquiritigenin, the small molecule inhibitor of EZH2 and the control small molecule phloretin.\nFor invasion assays, the breast cell lines HME was infected with EZH2 adenovirus. Forty-eight hours post-infection, cells were seeded onto the basement membrane matrix (EC matrix, Chemicon, Temecula, Calif.) present in the insert of a 24-well culture plate. Fetal bovine serum was added to the lower chamber as a chemoattractant with or without 2 doses of small molecule inhibitors. After 48 hours, the non-invading cells and EC matrix were gently removed with a cotton swab. Invasive cells located on the lower side of the chamber were measured colorimetrically by treating with 150 μl of 10% acetic acid and the absorbance measured at 560 nm using a spectrophotometer."}, "EZH2": {"target": "T1, EZH2 (Homo sapiens, UniProt Q15910)", "T1 construct": "expressed in transfected cells; host or cells: Primary breast cancer cells infected with EZH2 adenovirus", "T1 sequence (Q15910 whole entry)": "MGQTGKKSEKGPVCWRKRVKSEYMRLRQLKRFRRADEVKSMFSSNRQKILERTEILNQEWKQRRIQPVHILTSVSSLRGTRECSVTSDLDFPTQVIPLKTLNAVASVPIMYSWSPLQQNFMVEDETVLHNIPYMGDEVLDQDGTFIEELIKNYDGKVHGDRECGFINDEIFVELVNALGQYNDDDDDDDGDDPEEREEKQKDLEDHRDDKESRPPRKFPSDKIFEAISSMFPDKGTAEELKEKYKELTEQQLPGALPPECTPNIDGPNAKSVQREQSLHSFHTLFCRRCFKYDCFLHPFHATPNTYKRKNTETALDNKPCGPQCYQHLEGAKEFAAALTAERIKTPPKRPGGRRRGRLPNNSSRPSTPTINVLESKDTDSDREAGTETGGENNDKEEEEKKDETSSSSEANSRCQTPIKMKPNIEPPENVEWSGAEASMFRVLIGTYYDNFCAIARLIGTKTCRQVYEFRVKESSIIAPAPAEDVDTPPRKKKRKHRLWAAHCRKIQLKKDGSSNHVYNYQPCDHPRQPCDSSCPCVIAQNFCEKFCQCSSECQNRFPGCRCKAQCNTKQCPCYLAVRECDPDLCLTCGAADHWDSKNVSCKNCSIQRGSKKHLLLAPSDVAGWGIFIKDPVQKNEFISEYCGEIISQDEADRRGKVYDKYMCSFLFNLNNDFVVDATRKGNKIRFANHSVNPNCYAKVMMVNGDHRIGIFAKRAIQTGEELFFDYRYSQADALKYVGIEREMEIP", "T1 sequence (O75530 whole entry partner)": "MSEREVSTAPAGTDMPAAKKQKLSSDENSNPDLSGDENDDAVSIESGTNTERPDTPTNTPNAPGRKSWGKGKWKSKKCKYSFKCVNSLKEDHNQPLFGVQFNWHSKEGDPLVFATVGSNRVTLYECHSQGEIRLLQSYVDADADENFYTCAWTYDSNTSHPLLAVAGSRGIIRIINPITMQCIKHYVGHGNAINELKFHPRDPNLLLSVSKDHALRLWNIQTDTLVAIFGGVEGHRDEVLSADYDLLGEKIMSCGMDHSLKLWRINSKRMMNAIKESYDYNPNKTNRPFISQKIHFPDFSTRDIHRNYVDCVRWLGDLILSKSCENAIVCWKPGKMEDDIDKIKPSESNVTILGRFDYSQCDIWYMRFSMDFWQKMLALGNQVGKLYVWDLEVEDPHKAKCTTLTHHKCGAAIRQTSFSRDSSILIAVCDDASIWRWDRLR", "T1 sequence (Q15022 whole entry partner)": "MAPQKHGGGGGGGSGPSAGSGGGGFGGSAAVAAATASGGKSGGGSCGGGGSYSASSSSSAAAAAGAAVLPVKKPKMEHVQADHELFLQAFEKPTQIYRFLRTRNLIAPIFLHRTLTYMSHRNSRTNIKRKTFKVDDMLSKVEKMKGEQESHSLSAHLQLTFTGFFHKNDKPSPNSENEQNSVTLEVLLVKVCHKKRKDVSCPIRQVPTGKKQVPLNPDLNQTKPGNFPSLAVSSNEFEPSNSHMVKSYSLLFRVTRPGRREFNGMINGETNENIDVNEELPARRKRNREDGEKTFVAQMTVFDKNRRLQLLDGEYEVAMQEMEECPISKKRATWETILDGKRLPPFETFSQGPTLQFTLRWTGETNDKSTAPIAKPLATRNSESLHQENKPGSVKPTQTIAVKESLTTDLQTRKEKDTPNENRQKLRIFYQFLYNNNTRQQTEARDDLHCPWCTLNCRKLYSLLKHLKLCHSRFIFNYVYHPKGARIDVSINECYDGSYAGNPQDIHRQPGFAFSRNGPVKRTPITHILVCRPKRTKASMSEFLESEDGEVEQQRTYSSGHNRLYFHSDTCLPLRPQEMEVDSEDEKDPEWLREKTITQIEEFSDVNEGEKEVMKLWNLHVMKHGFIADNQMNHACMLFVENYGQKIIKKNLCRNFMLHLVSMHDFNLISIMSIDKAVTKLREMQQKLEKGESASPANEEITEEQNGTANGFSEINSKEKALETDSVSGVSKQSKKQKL", "assay": "high throughput screen, E-cadherin promoter luciferase reporter in EZH2 adenovirus infected cells", "settings": "final compound concentration about 5 μM, 24 hours", "procedure": "A high throughput screening protocol was used to identify small molecule inhibitors of EZH2. Primary breast cancer cells were transfected with the E-cadherin promoter luciferase reporter gene and infected with the EZH2 adenovirus to suppress luciferase expression 48 hours prior to compound addition. Eighteen hours prior to compound addition, cells were trypsinized and distributed into 384-well plates in 60 μl of medium using the Multidrop equipment. At time zero, compounds were transferred from 1.5 mM DMSO stocks to the cell plates in a final compound concentration of about 5 μM. […] After 24 hours, the expressed luciferase activity was measured by adding 50 μl of the medium and 10 μl of Steady-Glo luciferase reagent (Promega). Sample plates were read in the Pherastar plate reader (BMG Labtech). Each plate in the screen contains 320 compounds to be tested plus 64 control wells placed in the outer two columns on each side of the plate (>50,000 compounds are screened). […]\nA high throughput screening protocol was used to identify small molecule inhibitors of EZH2. […] After 24 hours, the expressed luciferase activity was measured by adding 50 μl of the medium and 10 ul of Steady-Glo luciferase reagent (Promega). Sample plates were read in the Pherastar plate reader (BMG Labtech). […]"}, "[2]": {"tested_on": "EZH2 mediated E cadherin repression", "assay": "EZH2 mediated E cadherin repression, SYBR green RT-PCR and dose response", "procedure": "A, Chemical structure of the flavonoid isoliquiritigenin. B, Quantitative SYBR green RT-PCR of EZH2 and E cadherin transcripts in cell lines over expressing EZH2 and control adenoviruses. RT-PCR on each sample was performed in duplicate, and a ratio was calculated relative to the housekeeping genes GAPDH. Transcripts were also measured in cells that were treated with isoliquiritigenin or other small molecules.\nas §1"}},
  "data": [
    {"smiles": "O=C(CCc1ccc(O)cc1)c1c(O)cc(O)cc1O", "note": "[control small molecule, phloretin, reference compound]", "values": [
      {"measurement": "invasion mediated by EZH2 overexpression", "setting": "[1]", "result": "did not inhibit the invasion"}
    ]},
    {"smiles": "O=C(/C=C/c1ccc(O)cc1)c1ccc(O)cc1O", "note": "[isoliquiritigenin]", "values": [
      {"measurement": "EZH2 inhibitory activity in high throughput screen", "setting": "EZH2", "result": "potent small molecule inhibitor of EZH2 activity"},
      {"measurement": "invasion mediated by EZH2 overexpression", "setting": "[1]", "result": "inhibited this invasion"},
      {"measurement": "inhibition of EZH2 mediated E cadherin repression", "setting": "[2]; cells over expressing EZH2, FIG. 5B", "result": "significantly inhibit"},
      {"measurement": "concentration that optimally inhibits EZH2 mediated E cadherin repression", "setting": "[2]; dose response, FIG. 6A", "result": 16, "unit": "µM"}
    ]}
  ]
}
